In patent publication US11453647B2, “Benzimidazole derivatives as adenosine receptor antagonists” (Merck Patent GmbH, priority 2017, dated 2022) one finds IC50 data, which are given here for 21 molecules.

Common to all, as to assay type: cell-based
Assay [1] deals with T1, human A1 receptor (Homo sapiens, UniProt P30542).
T1 construct: expressed in transfected cells; host or cells: CHO
T1 sequence (P30542 1-326): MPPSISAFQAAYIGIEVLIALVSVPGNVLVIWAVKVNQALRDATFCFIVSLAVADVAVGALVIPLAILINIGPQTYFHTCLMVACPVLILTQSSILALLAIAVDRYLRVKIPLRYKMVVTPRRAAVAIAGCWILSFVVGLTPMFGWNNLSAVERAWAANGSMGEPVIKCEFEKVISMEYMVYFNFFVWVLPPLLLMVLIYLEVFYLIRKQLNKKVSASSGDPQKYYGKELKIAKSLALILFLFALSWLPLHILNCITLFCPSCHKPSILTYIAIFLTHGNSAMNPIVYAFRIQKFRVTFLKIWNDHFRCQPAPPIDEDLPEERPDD
Briefly: functional cAMP (HTRF) assay, recombinant CHO cells expressing human A1 receptor, forskolin, agonist CPA. How it is done:
(§1) The functional activities of human A2A, A2B, A1 and A3 receptors were determined by quantification of cAMP, being the second messenger for adenosine receptors.
(§2) For human A1 and A3 receptors, recombinant CHO cells, expressing either A1 or A3-receptor, were used. As both receptors couple to Gi proteins, the assay protocol was adapted:
(§3) Cells were seeded into 384-well plates, forskolin, test compounds and agonists (CPA for A1- and IB-MECA for A3-receptor) were added. After 30 min incubation, HTRF reagents (cAMP dynamic 2, Cis Bio) were added and the cellular cAMP levels were determined using the ENVISION (Perkin Elmer) plate reader. Obtained raw data were normalized against the inhibitor control and the neural control (DMSO) and the normalized data were fitted using GeneData software.
In general terms: TR-FRET usually uses a lanthanide donor and a delayed reading to cut background.

The target of assay [2] is T2, A2B receptors (Homo sapiens, UniProt P29275).
T2 sequence (P29275 1-332): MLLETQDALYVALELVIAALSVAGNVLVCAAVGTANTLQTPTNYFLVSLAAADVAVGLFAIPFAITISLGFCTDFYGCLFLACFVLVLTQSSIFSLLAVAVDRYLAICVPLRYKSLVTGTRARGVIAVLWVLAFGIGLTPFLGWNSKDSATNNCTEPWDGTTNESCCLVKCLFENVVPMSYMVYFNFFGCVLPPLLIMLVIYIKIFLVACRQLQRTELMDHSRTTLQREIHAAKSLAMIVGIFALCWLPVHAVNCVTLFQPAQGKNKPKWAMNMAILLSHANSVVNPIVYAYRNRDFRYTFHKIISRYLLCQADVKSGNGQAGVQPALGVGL
Briefly: functional cAMP (HTRF) assay, recombinant HEK293 cells expressing human A2B receptor, agonist NECA. Also on record: expressed in transfected cells; host or cells: HEK293.

Assay [3] has as its target T3, human A2A receptor (Homo sapiens, UniProt P29274).
T3 construct: expressed in transfected cells; host or cells: HEK293
As to the kind of experiment: functional cAMP (HTRF) assay, recombinant HEK293 cells expressing human A2A receptor, agonist NECA.

The target of assay [4] is T4, human A3 receptor (Homo sapiens, UniProt P0DMS8).
T4 construct: expressed in transfected cells; host or cells: CHO
T4 sequence (P0DMS8 1-318): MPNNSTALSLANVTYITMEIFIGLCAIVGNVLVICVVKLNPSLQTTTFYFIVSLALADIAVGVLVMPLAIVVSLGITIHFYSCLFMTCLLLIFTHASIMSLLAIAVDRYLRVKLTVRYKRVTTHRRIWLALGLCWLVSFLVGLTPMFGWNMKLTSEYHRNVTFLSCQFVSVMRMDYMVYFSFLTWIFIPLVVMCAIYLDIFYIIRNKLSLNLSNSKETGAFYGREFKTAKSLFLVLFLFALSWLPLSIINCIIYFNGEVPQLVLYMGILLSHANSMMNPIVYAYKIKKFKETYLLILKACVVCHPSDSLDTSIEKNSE
Briefly: functional cAMP (HTRF) assay, recombinant CHO cells expressing human A3 receptor, forskolin, agonist IB-MECA. The method, then:
as §1, §2, §3

T3 sequence (P29274 whole entry): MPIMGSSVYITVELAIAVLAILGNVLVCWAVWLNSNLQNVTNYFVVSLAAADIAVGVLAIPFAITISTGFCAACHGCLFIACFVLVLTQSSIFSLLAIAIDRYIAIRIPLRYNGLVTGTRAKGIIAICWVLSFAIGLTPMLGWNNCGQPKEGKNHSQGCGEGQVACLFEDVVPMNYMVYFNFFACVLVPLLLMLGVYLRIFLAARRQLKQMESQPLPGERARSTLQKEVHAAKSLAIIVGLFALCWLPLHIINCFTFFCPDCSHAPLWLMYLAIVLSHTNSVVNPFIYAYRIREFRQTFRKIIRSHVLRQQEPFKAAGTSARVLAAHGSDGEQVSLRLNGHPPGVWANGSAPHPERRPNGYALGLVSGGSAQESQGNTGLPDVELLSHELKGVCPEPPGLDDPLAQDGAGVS

On to `COc1ccc(-c2ccccc2)c2nc(NC(=O)c3ccc(CCl)cc3)[nH]c12` [compound 10, 4-Chloromethyl-N-(7-methoxy-4-phenyl-1H-benzoimidazol-2-yl)-benzamide], for which the IC50 (in general, the midpoint of a concentration-inhibition curve) in assay [1] is greater than 1000 nM; in assay [2], less than 100 nM; in assay [3], less than 10 nM.
As to `COc1ccc(-c2cnn(C(F)F)c2)c2nc(NC(=O)N3CCC(C)(O)CC3)[nH]c12` [compound 229, N-{7-[1-(difluoromethyl)-1H-pyrazol-4-yl]-4-methoxy-1H-1,3-benzodiazol-2-yl}-4-hydroxy-4-methylpiperidine-1-carboxamide], the IC50 was greater than 1000 nM in assay [1], greater than 1000 nM in assay [4] and less than 100 nM in assay [3].
Consider `COc1ccc(-c2ccccc2)c2nc(NC(=O)c3cnc(N)s3)[nH]c12` [compound 258, 2-amino-N-(7-methoxy-4-phenyl-1H-1,3-benzodiazol-2-yl)-1,3-thiazole-5-carboxamide], for which the IC50 in assay [1] was less than 1000 nM; in assay [2], less than 10 nM; in assay [3] it was less than 10 nM.
For `COc1ccc(-c2ccccc2)c2nc(NC(=O)c3cncn3C)[nH]c12` [compound 254, N-(7-methoxy-4-phenyl-1H-1,3-benzodiazol-2-yl)-1-methyl-1H-imidazole-5-carboxamide], the IC50 in assay [1] was less than 1000 nM; in assay [2], less than 10 nM; in assay [3] it was less than 10 nM.
`COc1ccc(-c2ccccc2F)c2nc(NC(=O)c3cnn(C)c3)[nH]c12` [compound 243, N-[4-(2-fluorophenyl)-7-methoxy-1H-1,3-benzodiazol-2-yl]-1-methyl-1H-pyrazole-4-carboxamide]: the IC50 in assay [1] is less than 1000 nM; in assay [2] it was less than 10 nM; in assay [3] it was less than 10 nM.
As for `COCCOc1cccc(-c2ccc(OC)c3nc(NC(=O)c4c[nH]cn4)[nH]c23)c1` [compound 267, N-{4-methoxy-7-[3-(2-methoxyethoxy)phenyl]-1H-1,3-benzodiazol-2-yl}-1H-imidazole-4-carboxamide], the IC50 in assay [1] is less than 1000 nM; in assay [2] it was less than 10 nM; in assay [3] it was less than 10 nM.
Consider `COc1ccc(C2CCOCC2)c2nc(NC(=O)c3ccnc(N4CCC(C)(O)CC4)c3)[nH]c12` [compound 118, 2-(4-hydroxy-4-methylpiperidin-1-yl)-N-[7-methoxy-4-(oxan-4-yl)-1H-1,3-benzodiazol-2-yl]pyridine-4-carboxamide], for which the values for the IC50 in assay [1], in assay [2] and in assay [3] were greater than 1000 nM, greater than 1000 nM and less than 10 nM, respectively.
Turning to `COc1ccc(-c2ccc3cc[nH]c3c2)c2nc(NC(=O)N3CCC(C)(O)CC3)[nH]c12` [compound 272, 4-hydroxy-N-[4-(1H-indol-6-yl)-7-methoxy-1H-1,3-benzodiazol-2-yl]-4-methylpiperidine-1-carboxamide], the half-inhibitory concentration (IC50) in assay [1] was greater than 1000 nM; in assay [2] it was less than 100 nM; in assay [3] it was less than 100 nM.
Consider `COc1ccc(C2CCOCC2)c2nc(NC(=O)NCc3nccs3)[nH]c12` [compound 228, 3-[7-methoxy-4-(oxan-4-yl)-1H-1,3-benzodiazol-2-yl]-1-[(1,3-thiazol-2-yl)methyl]urea], for which the values for the IC50 in assay [1] and in assay [3] were greater than 1000 nM and less than 100 nM, respectively.
`COc1ccc(C2CCOCC2)c2nc(NC(=O)c3cnc(C)s3)[nH]c12` [compound 227, N-[7-methoxy-4-(oxan-4-yl)-1H-1,3-benzodiazol-2-yl]-2-methyl-1,3-thiazole-5-carboxamide]: the IC50 is greater than 1000 nM in assay [1], less than 100 nM in assay [2] and less than 10 nM in assay [3].
With `COc1ccc(-c2ccccc2)c2nc(NC(=O)c3cnc4n3CCCC4)[nH]c12` [compound 291, N-(7-methoxy-4-phenyl-1H-1,3-benzodiazol-2-yl)-5H,6H,7H,8H-imidazo[1,2-a]pyridine-3-carboxamide], the IC50 was less than 1000 nM in assay [1], less than 100 nM in assay [2] and less than 100 nM in assay [3].
Turning to `COc1ccc(-c2ccccc2)c2nc(NC(=O)c3cncs3)[nH]c12` [compound 256, N-(7-methoxy-4-phenyl-1H-1,3-benzodiazol-2-yl)-1,3-thiazole-5-carboxamide], the IC50 in assay [1] is less than 1000 nM; in assay [2], less than 10 nM; in assay [3], less than 10 nM.
Turning to `COc1ccc(-c2cccnc2)c2nc(NC(=O)c3cnn(C)c3)[nH]c12` [compound 260, N-[7-methoxy-4-(pyridin-3-yl)-1H-1,3-benzodiazol-2-yl]-1-methyl-1H-pyrazole-4-carboxamide], the results for the IC50 in assay [1], in assay [2] and in assay [3] were less than 1000 nM, less than 10 nM and less than 10 nM, respectively.
Turning to `COc1ccc(-c2ccccc2)c2nc(NC(=O)c3ccc(CN4CCCC4=O)cc3)[nH]c12` [compound 311, N-(7-methoxy-4-phenyl-1H-1,3-benzodiazol-2-yl)-4-[(2-oxopyrrolidin-1-yl)methyl]benzamide], the IC50 was less than 10 nM in assay [2], less than 1000 nM in assay [4] and less than 100 nM in assay [3].
As to `COc1ccc(-c2cnn(C)c2)c2nc(NC(=O)c3cncs3)[nH]c12` [compound 219, N-[7-methoxy-4-(1-methyl-1H-pyrazol-4-yl)-1H-1,3-benzodiazol-2-yl]-1,3-thiazole-5-carboxamide], the concentration for half-maximal inhibition (IC50) in assay [1] was less than 1000 nM; in assay [2], less than 10 nM; in assay [3], less than 10 nM.
Regarding `COc1ccc(-c2ccccc2)c2nc(NC(=O)c3cnc(C)s3)[nH]c12` [compound 257, N-(7-methoxy-4-phenyl-1H-1,3-benzodiazol-2-yl)-2-methyl-1,3-thiazole-5-carboxamide], the IC50 in assay [1] was less than 1000 nM; in assay [2], less than 10 nM; in assay [3], less than 10 nM.
Regarding `COc1ccc(-c2ccccc2)c2nc(NC(=O)c3ccc(F)cc3)[nH]c12` [compound 2, 4-Fluoro-N-(7-methoxy-4-phenyl-1H-benzoimidazol-2-yl)-benzamide], the IC50 in assay [2] was less than 100 nM; in assay [4], less than 10 nM; in assay [3] it was less than 10 nM.
`COc1ccc(-c2ccncc2)c2[nH]c(NC(=O)c3c[nH]cn3)nc12` [compound 266, N-[4-methoxy-7-(pyridin-4-yl)-1H-1,3-benzodiazol-2-yl]-1H-imidazole-4-carboxamide]: the IC50 is greater than 1000 nM in assay [1], less than 100 nM in assay [2] and less than 100 nM in assay [3].
On to `COc1ccc(-c2ccccc2)c2nc(NC(=O)c3cnc4cccnn34)[nH]c12` [compound 288, N-(7-methoxy-4-phenyl-1H-1,3-benzodiazol-2-yl)imidazo[1,2-b]pyridazine-3-carboxamide], for which the IC50 is less than 100 nM in assay [2], less than 1000 nM in assay [4] and less than 100 nM in assay [3].
As for `COc1ccc(-c2ccccc2)c2nc(NC(=O)N3CCC4(CCOCC4)C3)[nH]c12` [compound 310, N-(7-methoxy-4-phenyl-1H-1,3-benzodiazol-2-yl)-8-oxa-2-azaspiro[4.5]decane-2-carboxamide], the IC50 in assay [2] was less than 100 nM; in assay [4] it was greater than 1000 nM; in assay [3], less than 100 nM.
Regarding `COc1ccc(C2CCCCC2)c2nc(NC(=O)c3ccnc(N4CCOCC4)c3)[nH]c12` [compound 17, N-(4-Cyclohexyl-7-methoxy-1H-benzoimidazol-2-yl)-2-morpholin-4-yl-isonicotinamide], the IC50 in assay [2] was greater than 1000 nM; in assay [4], less than 1000 nM; in assay [3], less than 10 nM.
